Results published in patent US8466290B2, “STAT3 inhibitor containing quinolinecarboxamide derivative as active ingredient” (Pharma IP General Incorporated Association, priority 2008, dated 2013).
Read-outs that look alike come from different tables or passages of the source.

How the values were obtained:
STAT3 = STAT3 transcription inhibition test (reporter gene method, oncostatin M stimulation); format: cell-based; conditions: compound at 100 μM, STAT3 reporter HeLa stable cell line, oncostatin M 10 ng/mL, 4 hours; for inhibition at 100 µM: Homo sapiens, read-out: STAT3 transcription inhibitory activity (%)
Protocol: The inhibition of STAT3 transcription was evaluated by using STAT3 reporter HeLa stable cell line (Panomics Inc., catalog No. RC0003), a cell line for the reporter gene method, and performing the following method according to the appendix included therein.
STAT3 reporter HeLa stable cell line subcultured and maintained in a Dulbecco's modified Eagle's medium (DMEM) containing 10% fetal bovine serum, 100 units/mL penicillin, and 100 μg/mL streptomycin was inoculated at a concentration of 40000 cells/well to a 96-well plate (white) and attached to the plate by overnight incubation at 37° C. under 5% CO2. After addition of each evaluation compound adjusted to various concentrations (adjusted with a DMSO solution), the cells were precultured for 1 hour. Then, oncostatin M for activating STAT3 was added at a final concentration 10 ng/mL, and the cells were further cultured at 37° C. under 5% CO2 for 4 hours. Luciferase activity derived from the cells was determined using Steady-Glo Luciferase Assay System (Promega Corp.), and STAT3 transcriptional activity scores were calculated according to the following formula: STAT3 transcriptional activity score (%)=100×(Lchem−L0)/(LDMSO−L0) Lo: luminescence intensity obtained without stimulation with oncostatin M Lchem: luminescence intensity obtained by the addition of a test sample LDMSO: luminescence intensity obtained by the addition of only a solvent for dissolving a test sample

MDA-MB-435S = MDA-MB-435S cell growth inhibitory activity; format: cell-based; conditions: for inhibition at 20 µM: Homo sapiens, read-out: Cell growth inhibitory activity (%)
Protocol: […] Each well was washed three times with a medium. Then, after addition of 100 μL/well of a medium and 20 μL/well of CellTiter 96 AQueous One Solution Reagent (Promega Corp.), the cells were incubated at 37° C. for 2 hours in the presence of 5% CO2.

[1] = tested on: Human lymphoma SCC-3 cells; experiment: SCC-3 cell growth inhibition test (MTT method); format: cell-based; conditions: 72-hour culture, read-out: Cell growth inhibitory activity (IC50: μM)
Protocol: Simultaneously with cell inoculation, each test compound diluted to various concentrations with an RPMI medium was added to each well.

[2] = tested on: human lymphoma SCC-3 cells; experiment: Evaluation using human lymphoma-transplanted nude mice; conditions: SCC-3 cancer-bearing nude mice; for T/C (%): tumor volume ratio vs control
Protocol: 1×10^6 human lymphoma SCC-3 cells (containing Matrigel) were subcutaneously transplanted to the flank part of each 6-week-old male nude mouse (BALB/cA-nu/nu, CLEA Japan, Inc.). After the transplantation, the tumor volumes [major axis (mm) and minor axis (mm)] of the SCC-3 cancer-bearing mice were measured using an electronic vernier caliper (CD-10, Mitutoyo Corp.), and tumor volumes [mm^3: (major axis)x(minor axis)^2/2] were calculated. SCC-3 cancer-bearing mice whose tumor volume reached 50 to 300 mm^3 were selected and divided based on the tumor volumes into groups each containing 5 individuals. A test compound was suspended in a 0.5% methylcellulose solution and orally administered at a dose of 0.01 mL/g body weight once a day for 5 days (Day 0 (administration initiation day) to Day 4). To a control group, none was administered. The tumor volumes of the SCC-3 cancer-bearing mice were measured every day from the initiation of test compound administration to evaluate antitumor effect. The antitumor effect was assessed by calculating T/C (%) values according to the following formula:
V: tumor volume on every assay day
V0: tumor volume on the administration initiation day (V/V0 of the test compound group)/(V/V0 of the control group)×100

[3] = 40 mg/kg orally once a day for 5 days
[4] = 160 mg/kg orally once a day for 5 days

Row | IC50 ([1]; Homo sapiens) | SMILES | inhibition at 100 µM (STAT3) | inhibition at 20 µM (MDA-MB-435S; compound at 20 μM, 72 hours) | also measured
1 |  | O=C(Nc1nnc(-c2ccco2)o1)c1cc(/C=C/c2ccccc2)nc2ccccc12 [Ia-65, N-[5-(2-furyl)-1,3,4-oxadiazol-2-yl]-2-trans-styryl-4-quinolinecarboxamide] |  |  | STAT3 transcription inhibitory activity (%) (STAT3): >100%; Cell growth inhibitory activity (%) (MDA-MB-435S; compound at 20 μM, 72 hours): 69%; IC50 [1]: 2.6 µM
2 | 0.7 µM | O=C(Nc1nnc(-c2ccco2)o1)c1cc(-c2ccccc2)nc2c(Cl)cc(Cl)cc12 [Ia-74, 6,8-dichloro-N-[5-(2-furyl)-1,3,4-oxadiazol-2-yl]-2-phenyl-4-quinolinecarboxamide] | 97% | 82% | 
3 | 2.2 µM | O=C(Nc1nnc(-c2ccco2)o1)c1cc(-c2ccc([N+](=O)[O-])cc2)nc2ccccc12 [Ia-52, N-[5-(2-furyl)-1,3,4-oxadiazol-2-yl]-2-(4-nitrophenyl)-4-quinolinecarboxamide] | > 100% | 68% | 
4 | 2 µM | O=C(Nc1nnc(-c2ccco2)o1)c1cc(-c2ccc(Cl)cc2)nc2ccccc12 [Ia-47, 2-(4-chlorophenyl)-N-[5-(2-furyl)-1,3,4-oxadiazol-2-yl]-4-quinolinecarboxamide] | > 100% | 82% | 
5 | 6 µM | Cc1cccc2c(C(=O)Nc3nnc(-c4ccco4)o3)cc(-c3ccccc3)nc12 [Ia-25, N-[5-(2-furyl)-1,3,4-oxadiazol-2-yl]-8-methyl-2-phenyl-4-quinolinecarboxamide] | 77% |  | 
6 | 2.1 µM | O=C(Nc1nnc(-c2ccco2)o1)c1cc(-c2cccc3ccccc23)nc2ccccc12 [Ia-60, N-[5-(2-furyl)-1,3,4-oxadiazol-2-yl]-2-(1-naphthyl)-4-quinolinecarboxamide] | > 100% | 100% | 
7 | 1.9 µM | O=C(Nc1nnc(-c2ccco2)o1)c1cc(-c2ccccc2)nc2cc(Br)ccc12 [Ia-24, 7-bromo-N-[5-(2-furyl)-1,3,4-oxadiazol-2-yl]-2-phenyl-4-quinolinecarboxamide] | 72% | 94% | 
8 | 1.9 µM | Cc1ccc2nc(-c3ccccc3)cc(C(=O)Nc3nnc(-c4ccco4)o3)c2c1 [Ia-70, N-[5-(2-furyl)-1,3,4-oxadiazol-2-yl]-6-methyl-2-phenyl-4-quinolinecarboxamide] | > 100% | > 100% | 
9 | 2.1 µM | O=C(Nc1nnc(-c2ccco2)o1)c1cc(-c2ccc(Cl)s2)nc2ccccc12 [Ia-19, 2-(5-chloro-2-thienyl)-N-[5-(2-furyl)-1,3,4-oxadiazol-2-yl]-4-quinolinecarboxamide] | 77% | 98% | 
10 | 2.1 µM | O=C(Nc1nnc(-c2ccco2)o1)c1cc(-c2ccccc2)nc2ccc(F)cc12 [Ia-67, 6-fluoro-N-[5-(2-furyl)-1,3,4-oxadiazol-2-yl]-2-phenyl-4-quinolinecarboxamide] | 90% |  | 
11 | 4.6 µM | N#Cc1ccc(-c2cc(C(=O)Nc3nnc(-c4ccco4)o3)c3ccccc3n2)cc1 [Ia-17, 2-(4-cyanophenyl)-N-[5-(2-furyl)-1,3,4-oxadiazol-2-yl]-4-quinolinecarboxamide] | 80% | 54% | 
12 | 1.3 µM | Cc1cc(C)c2nc(-c3cccs3)cc(C(=O)Nc3nnc(-c4ccco4)o3)c2c1 [Ia-33, N-[5-(2-furyl)-1,3,4-oxadiazol-2-yl]-6,8-dimethyl-2-(2-thienyl)-4-quinolinecarboxamide] | 58% | 79% | 
13 | 2.2 µM | O=C(Nc1nnc(-c2ccco2)o1)c1cc(-c2ccccc2)nc2cc(Cl)ccc12 [Ia-72, 7-chloro-N-[5-(2-furyl)-1,3,4-oxadiazol-2-yl]-2-phenyl-4-quinolinecarboxamide] | > 100% |  | 
14 | 2.7 µM | Cc1ccc(-c2cc(C(=O)Nc3nnc(-c4ccccc4)o3)c3ccccc3n2)cc1 [Ia-i, N-(5-phenyl-1,3,4-oxadiazol-2-yl)-2-(4-tolyl)-4-quinolinecarboxamide] | 85% |  | 

Row | SMILES | IC50 ([1]; Homo sapiens) | inhibition at 100 µM (STAT3) | inhibition at 20 µM (MDA-MB-435S; compound at 20 μM, 72 hours) | also measured
15 | CC(C)(C)OC(=O)c1cccc(-c2cc(C(=O)Nc3nnc(-c4ccco4)o3)c3ccccc3n2)c1 [Ia-44, 2-(3-tert-butoxycarbonylphenyl)-N-[5-(2-furyl)-1,3,4-oxadiazol-2-yl]-4-quinolinecarboxamide] | 1.8 µM | > 100% | 99% | 
16 | O=C(Nc1nnc(-c2ccco2)o1)c1cc(-c2ccccc2)nc2ccccc12 [Ia-1, N-[5-(2-furyl)-1,3,4-oxadiazol-2-yl]-2-phenyl-4-quinolinecarboxamide] | 5.9 µM | 54% |  | inhibition at 20 µM (MDA-MB-435S; 72 h): 89%; The number of deaths [2, 3]: 0/5; T/C (%) [2, 3]: 38%; The number of deaths [2, 4]: 0/5; T/C (%) [2, 4]: 40%
17 | O=C(Nc1nnc(-c2ccco2)o1)c1cc(-c2ccccc2)nc2ccc(Cl)cc12 [Ia-22, 6-chloro-N-[5-(2-furyl)-1,3,4-oxadiazol-2-yl]-2-phenyl-4-quinolinecarboxamide] | 0.9 µM | 76% | 98% | The number of deaths [2, 3]: 0/5; T/C (%) [2, 3]: 56%
18 | CCCCOc1cc(C(=O)Nc2nnc(-c3ccco3)o2)c2ccccc2n1 [Ia-35, 2-(1-butoxy)-N-[5-(2-furyl)-1,3,4-oxadiazol-2-yl]-4-quinolinecarboxamide] | 5.6 µM | 57% |  | 
19 | O=C(Nc1nnc(-c2ccco2)o1)c1cc(-c2ccccc2)nc2ccc(OC(F)(F)F)cc12 [Ia-71, N-[5-(2-furyl)-1,3,4-oxadiazol-2-yl]-2-phenyl-6-trifluoromethoxy-4-quinolinecarboxamide] | 0.3 µM | > 100% |  | inhibition at 20 µM (MDA-MB-435S; 72 h): 85%
20 | CC(C)(C)OC(=O)c1ccc(-c2cc(C(=O)Nc3nnc(-c4ccco4)o3)c3ccccc3n2)cc1 [Ia-53, 2-(4-tert-butoxycarbonylphenyl)-N-[5-(2-furyl)-1,3,4-oxadiazol-2-yl]-4-quinolinecarboxamide] | 0.7 µM | > 100% | 100% | 
